Experimental data reported in patent publication US6057324A, “Substituted amidinobenzene derivatives and medicinal compositions thereof” (Yamanouchi Pharmaceutical Co., Ltd, priority 1996, dated 2000).

What was measured:
[1] = Metabolic test of an active body (Compound A) in plasma after oral administration to beagle dogs; assay type: in vivo; details: 10 mg/kg
Protocol: Compound of Example 2 of the present invention was administered to three beagle dogs orally at a dose of 10 mg/kg as an aqueous solution and then blood was withdrawn over 48 hours after administration. After centrifugation, plasma was separated and then stored at -20° C. until analysis. Compound A (compound name: 4-[4-(4-amidinophenyl)-3-oxo-1-piperazinyl]-1-piperidineacetic acid, an unexamined published Japanese patent application No. 8-333342), which is an active body produced as a metabolite of Compound of Example 2, was determined by the high performance liquid chromatography method to obtain the pharmacokinetic parameters. Compound A was also administered to the same beagle dogs at a dose of 10 mg/kg, and then plasma Compound A concentration was measured. Pharmacokinetic parameters of Compound A after the administration of Compound of Example 2 and Compound A were compared-with each other. In Table 1 it is shown the pharmacokinetic parameters of plasma Compound A after oral administration, and in FIG. 1 it is shown the plasma concentration-time profile of Compound A after oral administration.
Table 1 represents Pharmacokinetic parameters of plasma Compound A after oral administration of Compound of Example 2 and Compound A to beagle dogs at a dose of 10 mg/kg (mean of three animals±standard deviation) and FIG. 1 represents plasma concentration-time profile of Compound A.

platelets = test: Ex vivo platelet aggregation-inhibiting activity in cynomolgus monkeys; details: 1 mg/kg via stomach tube, triggers 20 μM ADP and 10 μg/ml collagen
Protocol: Cynomolgus monkeys that had been lightly anesthetized by intramuscular administration of ketamine hydrochloride were fixed on a work-bench, and a sample compound of the present invention dissolved or suspended in a methylcellulose solution was administered into the stomach via a stomach tube at a dose of 1 mg/kg. Before the administration and after the administration at a predetermined period of time, 3 ml (containing 1/10 times by volume of sodium citrate) of the blood was collected from the animal through the femoral vein. From the blood, platelet-rich-plasma (PRP) was obtained according to the method of De Marco et al's (see J. clin. Invest., 77, 1272-1277, 1986). The PRP was adjusted at 3×10^8 /ml with an automatic blood cell counter (MEK-5158 Model, produced by Nihon Koden Co.) before use. Then, 20 μM of ADP and 10 μg/ml of bovine tendon-derived collagen (produced by Niko Bioscience Co.) as triggers to cause the aggregation of the platelets. The degree of the aggregation of the platelets was measured with a platelet aggregation meter (NBS Hematracer 801, produced by Niko Bioscience Co.). The platelet aggregation-inhibiting activity of the tested compound was represented by the inhibition percentage (%) relative to the maximum aggregation percentage of each animal before the addition of the test compound.
The test results are shown in Table 2 together with the results of the Compound A which is the active body of the compounds of the present invention.

| Compound | AUC(0-t) at 48 h ([1]; dog, plasma, mean of three animals ± standard deviation, analyte Compound A, read-out: AUC0-48 (area under the time-concentration curve in plasma over 48 hours) of Compound A) | Cmax ([1]; dog, plasma, mean of three animals ± standard deviation, analyte Compound A, read-out: Cmax (maximum plasma concentration) of plasma Compound A) | Tmax ([1]; dog, plasma, mean of three animals ± standard deviation, analyte Compound A, read-out: Tmax (time to reach Cmax) of plasma Compound A) | half-life ([1]; dog, plasma, mean of three animals ± standard deviation, analyte Compound A, read-out: t1/2 (elimination half life) of plasma Compound A (converted)) | Platelet aggregation-inhibiting ratio after 3 hours (platelets) | Platelet aggregation-inhibiting ratio after 6 hours (platelets) | Platelet aggregation-inhibiting ratio after 9 hours (platelets) | bioavailability of Compound A when administered as prodrug (in words) [1] | plasma residence time of Compound A when administered as prodrug (in words) [1] | t1/2 of Compound A compared with administration of Compound A (in words) [1] | Platelet aggregation-inhibiting ratio after 12 hours (platelets) | Platelet aggregation-inhibiting ratio after 24 hours (platelets) |
| --- | --- | --- | --- | --- | --- | --- | --- | --- | --- | --- | --- | --- |
| N=C(N)c1ccc(N2CCN(C3CCN(CC(=O)O)CC3)CC2=O)cc1 [Compound A, 4-[4-(4-amidinophenyl)-3-oxo-1-piperazinyl]-1-piperidineacetic acid] | 3550 ± 838 ng·h/mL | 748 ± 175 ng/mL | 1.7 ± 0.6 h | 2.1 h | 19.7 ± 9.4% | 16.3 ± 7.5% | 14.2 ± 5.9% |  |  |  |  |  |
| CCOC(=O)CN1CCC(N2CCN(c3ccc(C(=N)NO)cc3)C(=O)C2)CC1 [Example 2, ethyl 4-[4-(4-hydroxyamidinophenyl)-3-oxo-1-piperazinyl]-1-piperidineacetate] |  |  |  |  | 24.7 ± 23.7% | 66.3 ± 15.4% | 88.0 ± 11.0% | increase | increase | greatly prolonged | 89.0% | 54.0 ± 9.0% |
| CCOC(=O)CN1CCC(N2CCN(c3ccc(C(=N)NC(=O)OC)cc3)C(=O)C2)CC1 [Example 7, Ethyl 4-[4-(4-methoxycarbonylamidinophenyl)-3-oxo-1-piperazinyl]-1-piperidineacetate] |  |  |  |  | 9.0 ± 5.7% | 42.0 ± 14.7% | 60.0 ± 15.6% |  |  |  | 64.3% | 26.0 ± 2.9% |
